- melting point: 71 to 75 °C
SMILES: COc1ccc2c(c1)CCC=C2c1ccc(OCCN2CCCC2)cc1 [Example 1, 1-{2-[4-(6-Methoxy-3,4-dihydronaphthalene-1-yl)phenoxy]ethyl}pyrrolidine]

Reference: US8937188B2, “Process for the preparation of lasofoxifene tartrate” (Glenmark Generics Ltd., priority 2009, dated 2015)
